Several values for one entry are separate records, joined by “and”; a condition that tells them apart may be missing. Identical values can stand only once. Strand notation (5' to 3'): a small letter for the sugar, then the base; units joined by * are phosphorothioate-linked, units joined directly phosphodiester-linked; [ ] holds rarer units or linkages, { } end groups; capitals alone tell only the bases. {Fluor} = fluorescein moiety via fluorescein-labeled amidite; d = 2'-deoxy (DNA)
These substances were tested against T1, human type II phospholipase A2 (Homo sapiens, UniProt P14555) (assay: Human type II phospholipase A2 enzyme assay (3H-oleic acid labelled E. coli substrate)). Conditions: 1 μM.
T1 sequence (P14555 21-144): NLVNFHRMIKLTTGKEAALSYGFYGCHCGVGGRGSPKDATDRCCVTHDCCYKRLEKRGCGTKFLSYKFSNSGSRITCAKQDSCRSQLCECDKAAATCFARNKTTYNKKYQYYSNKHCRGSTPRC
Type: biochemical
With “ISIS 3470: GTAGGGAGGGAGGGTATGAGA, phosphorothioate, SEQ ID NO 66 (dG*dT*dA*dG*dG*dG*dA*dG*dG*dG*dA*dG*dG*dG*dT*dA*dT*dG*dA*dG*dA)” the “inhibition of human type II phospholipase A2” value was “completely inhibited”.

Same assay, conditions: 1 μM; Table 4
For “ISIS 3472: TGGGTGAGGGATGCTTTCTGC, phosphorothioate, SEQ ID NO 68 (dT*dG*dG*dG*dT*dG*dA*dG*dG*dG*dA*dT*dG*dC*dT*dT*dT*dC*dT*dG*dC)”, the “% Inhibition (1 μM)” value was 69.0%. For “ISIS 3476: GCTGGAAATCTGCTGGATGTC, phosphorothioate, SEQ ID NO 72 (dG*dC*dT*dG*dG*dA*dA*dA*dT*dC*dT*dG*dC*dT*dG*dG*dA*dT*dG*dT*dC)”, the “% Inhibition (1 μM)” value was 43.4%. “ISIS 3470: GTAGGGAGGGAGGGTATGAGA, phosphorothioate, SEQ ID NO 66 (dG*dT*dA*dG*dG*dG*dA*dG*dG*dG*dA*dG*dG*dG*dT*dA*dT*dG*dA*dG*dA)” was tested, and the “% Inhibition (1 μM)” value was 88.9%.

Same assay, conditions: 1 μM; Table 5, two separate experiments
“GGG TGG GTA TAG AAG GGC: truncated version of ISIS 3196, SEQ ID NO 97 (dG*dG*dG*dT*dG*dG*dG*dT*dA*dT*dA*dG*dA*dA*dG*dG*dG*dC)” was tested, and the “% Inhibition (1 μM)” value was 85.3%. “TGG GTA TAG AAG GGC TCC: truncated version of ISIS 3196, SEQ ID NO 99 (dT*dG*dG*dG*dT*dA*dT*dA*dG*dA*dA*dG*dG*dG*dC*dT*dC*dC)” was tested, and the “% Inhibition (1 μM)” value was 84.6%.

The substances below were run on HSV-1 (KOS) (assay: HSV-1 infection ELISA assay). Conditions: 50% inhibition of HSV replication relative to control infected cells; Table 1.
Type: cell-based
For “ISIS 4894: CAT CGC CGA TCG GGG, P = S, SEQ ID NO 18 (CATCGCCGATCGGGG; all phosphorothioate, sugars by position and methylation of C not given here)”, the EC50 was > 3000 nM. With “ISIS 4882: CAT GGC GGG ACT ACG, P = S, SEQ ID NO 9 (CATGGCGGGACTACG; all phosphorothioate, sugars by position and methylation of C not given here)” the EC50 was 1700 nM and 1400 nM. For “ISIS 4874: AGG CAT GAC CGG GGC, P = S, SEQ ID NO 3 (AGGCATGACCGGGGC; all phosphorothioate, sugars by position and methylation of C not given here)”, the EC50 was 1100 nM and 830 nM. “ISIS 4890: GCC AGG GGA ATC CGT, P = S, SEQ ID NO 15 (GCCAGGGGAATCCGT; all phosphorothioate, sugars by position and methylation of C not given here)” was tested, and the EC50 was 750 nM and 700 nM. For “ISIS 4889: AGG GGA ATC CGT CAT, P = S, SEQ ID NO 14 (AGGGGAATCCGTCAT; all phosphorothioate, sugars by position and methylation of C not given here)”, the EC50 was 2000 nM. “ISIS 4896: GC CGA TGC GGG G, P = S, SEQ ID NO 20 (GCCGATGCGGGG; all phosphorothioate, sugars by position and methylation of C not given here)” showed an EC50 of 1200 nM. With “ISIS 5302: CAC GAA AGG CAT GAC, P = S, SEQ ID NO 7 (CACGAAAGGCATGAC; all phosphorothioate, sugars by position and methylation of C not given here)” the EC50 was > 3000 nM. With “ISIS 4693: G T ATA G AAG GGC TCC, P = S, SEQ ID NO 52 (GTATAGAAGGGCTCC; all phosphorothioate, sugars by position and methylation of C not given here)” the EC50 was > 3000 nM. In the case of “ISIS 4671: GGG T GGG T ATA GAA G, P = S, SEQ ID NO 49 (GGGTGGGTATAGAAG; all phosphorothioate, sugars by position not given here)”, the EC50 is reported as 400 nM. “ISIS 4895: CGC CGA TGC GGG GCG, P = S, SEQ ID NO 19 (CGCCGATGCGGGGCG; all phosphorothioate, sugars by position and methylation of C not given here)” was tested, and the EC50 was 550 nM. For “ISIS 4694: TA G AAG GGC TCC, P = S, SEQ ID NO 53 (TAGAAGGGCTCC; all phosphorothioate, sugars by position and methylation of C not given here)”, the EC50 was > 3000 nM.

Same assay, conditions: HSV-1 (KOS strain); Table 9; some in duplicate
For “ISIS 4350: GACGGTCAAGGGGAGGGTTGG, phosphorothioate, SEQ ID NO 129 (GACGGTCAAGGGGAGGGTTGG; all phosphorothioate, sugars by position and methylation of C not given here)”, the EC50 was 250 nM. Work on “ISIS 4349: GGTTGGAGACCGGGGTTGGG, phosphorothioate, SEQ ID NO 126 (GGTTGGAGACCGGGGTTGGG; antisense; all phosphorothioate, sugars by position and methylation of C not given here)” yielded an EC50 of 250 nM. With “ISIS 4112: GACTGGGGCGAGGTAGGGGT, phosphorothioate, SEQ ID NO 132 (GACTGGGGCGAGGTAGGGGT; antisense; all phosphorothioate, sugars by position and methylation of C not given here)” the EC50 was 300 nM. For “ISIS 4341: TGGAGACCGGGGTTGGGGAA, phosphorothioate, SEQ ID NO 127 (TGGAGACCGGGGTTGGGGAA; antisense; all phosphorothioate, sugars by position and methylation of C not given here)”, the EC50 was 200 nM. With “ISIS 4399: GTCCCGACTGGGGCGAGGAT, phosphorothioate, SEQ ID NO 133 (GTCCCGACTGGGGCGAGGAT; antisense; all phosphorothioate, sugars by position and methylation of C not given here)” the EC50 was 250 nM. Substance “ISIS 4435: GGGGAGACCGAAACCGCAAA, phosphorothioate, SEQ ID NO 130 (GGGGAGACCGAAACCGCAAA; antisense; all phosphorothioate, sugars by position and methylation of C not given here)” has an EC50 of 220 nM. Substance “ISIS 4111: CCTGGATGATGCTGGGGTAC, phosphorothioate, SEQ ID NO 131 (CCTGGATGATGCTGGGGTAC; antisense; all phosphorothioate, sugars by position and methylation of C not given here)” has an EC50 of 600 nM. “ISIS 4348: GGGTTGGAGACCGGGGTTGG, phosphorothioate, SEQ ID NO 125 (GGGTTGGAGACCGGGGTTGG; all phosphorothioate, sugars by position and methylation of C not given here)” showed an EC50 of 400 nM. For “ISIS 4342: TTGGAGACCGGGGTTGGGGA, phosphorothioate, SEQ ID NO 128 (TTGGAGACCGGGGTTGGGGA; antisense; all phosphorothioate, sugars by position and methylation of C not given here)”, the EC50 was 200 nM.

Same assay, conditions: Table 12, inosine-substituted
In the case of “ISIS 5309: GTT GGA GAC CGI GGT TGG GG, Inosine #12, SEQ ID NO 140 (GTT GGA GAC CGI GGTTGG GG; inosine at 12, as printed in the source, key not given here)”, the EC50 is reported as > 3000 nM. For “ISIS 5295: GTT GGA GAC CGG GIT TGG GG, Inosine #14, SEQ ID NO 138 (GTT GGA GAC CGG GITTGG GG; inosine at 14, as printed in the source, key not given here)”, the EC50 was > 3000 nM.

Same assay, conditions: Table 13, fluorescein-conjugated
With “ISIS 5339: sequence of 1082 (SEQ ID NO 134) with a fluorescein moiety conjugated to the 5′ end (GCCGAGGTCCATGTCGTACGC; DNA, 5' {Fluor}, backbone not given here)” the EC50 was 650 nM.

Reference: patent US20070015723A1, “Antiviral oligonucleotides having a conserved G4 core sequence” (priority 1992, published 2007)
